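Briefly, cells in 96-well plates were exposed to five compound concentrations for 48 h, and endpoints were estimated by linear interpolation. Definition used: TGI = concentration required for complete inhibition of growth.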
Legend:
Assay in all cases: DTP human tumour cell line panel, 48 h
HCC-2998 colon = test system: HCC-2998 colon
U251 CNS = test system: U251 CNS
HT29 colon = test system: HT29 colon
HCT-116 colon = test system: HCT-116 colon
SF-539 CNS = test system: SF-539 CNS
PC-3 prostate = test system: PC-3 prostate
OVCAR-4 ovarian = test system: OVCAR-4 ovarian
CAKI-1 renal = test system: CAKI-1 renal
SF-295 CNS = test system: SF-295 CNS
SF-268 CNS = test system: SF-268 CNS
786-0 renal = test system: 786-0 renal
RXF 393 renal = test system: RXF 393 renal
HOP-62 NSCLC = test system: HOP-62 NSCLC
SNB-75 CNS = test system: SNB-75 CNS
SK-MEL-28 melanoma = test system: SK-MEL-28 melanoma
OVCAR-5 ovarian = test system: OVCAR-5 ovarian
SR leukemia = test system: SR leukemia
KM12 colon = test system: KM12 colon
UO-31 renal = test system: UO-31 renal
RPMI-8226 leukemia = test system: RPMI-8226 leukemia
CCRF-CEM leukemia = test system: CCRF-CEM leukemia
M14 melanoma = test system: M14 melanoma
SN12C renal = test system: SN12C renal
UACC-257 melanoma = test system: UACC-257 melanoma
SK-MEL-2 melanoma = test system: SK-MEL-2 melanoma
K-562 leukemia = test system: K-562 leukemia
HL-60(TB) leukemia = test system: HL-60(TB) leukemia
COLO 205 colon = test system: COLO 205 colon
SNB-19 CNS = test system: SNB-19 CNS
EKVX NSCLC = test system: EKVX NSCLC
IGROV1 ovarian = test system: IGROV1 ovarian
SW-620 colon = test system: SW-620 colon
MDA-MB-435 = test system: MDA-MB-435
MDA-N = test system: MDA-N
NCI-H226 lung = test system: NCI-H226 lung
MOLT-4 leukemia = test system: MOLT-4 leukemia
A549 NSCLC = test system: A549 NSCLC
NCI-H460 lung = test system: NCI-H460 lung
T-47D breast = test system: T-47D breast
SK-MEL-5 melanoma = test system: SK-MEL-5 melanoma
TK-10 renal = test system: TK-10 renal
ACHN renal = test system: ACHN renal
NCI/ADR-RES ovarian = test system: NCI/ADR-RES ovarian
SK-OV-3 ovarian = test system: SK-OV-3 ovarian
UACC-62 melanoma = test system: UACC-62 melanoma
HS 578T breast = test system: HS 578T breast
DU-145 prostate = test system: DU-145 prostate
MCF7 breast = test system: MCF7 breast
OVCAR-8 ovarian = test system: OVCAR-8 ovarian
HCT-15 colon = test system: HCT-15 colon
MDA-MB-231 breast = test system: MDA-MB-231 breast

Q: How did the TGI (HCC-2998 colon) turn out when COc1ccc(C(=O)/C=C/c2ccc(OCCCOc3ccc(/C=C/C(=O)c4ccc(OC)cc4)cc3)cc2)cc1 was run?
A: > 100 µM

Q: And the TGI (U251 CNS)?
A: > 100 µM

Q: And the TGI (HT29 colon)?
A: > 100 µM

Q: And the TGI (HCT-116 colon)?
A: > 100 µM

Q: And the TGI (SF-539 CNS)?
A: 72.6 µM

Q: What about the TGI (PC-3 prostate) of the same compound?
A: > 100 µM

Q: And the TGI (OVCAR-4 ovarian)?
A: > 100 µM

Q: What about the TGI (CAKI-1 renal) of the same compound?
A: > 100 µM

Q: And the TGI (SF-295 CNS)?
A: > 100 µM

Q: And the TGI (SF-268 CNS)?
A: > 100 µM

Q: What about the TGI (786-0 renal) of the same compound?
A: > 100 µM

Q: And the TGI (RXF 393 renal)?
A: > 100 µM

Q: What about the TGI (HOP-62 NSCLC) of the same compound?
A: > 100 µM

Q: And the TGI (SNB-75 CNS)?
A: > 100 µM

Q: And the TGI (SK-MEL-28 melanoma)?
A: > 100 µM

Q: And the TGI (OVCAR-5 ovarian)?
A: > 100 µM

Q: What about the TGI (SR leukemia) of the same compound?
A: > 100 µM

Q: What about the TGI (KM12 colon) of the same compound?
A: > 100 µM

Q: What about the TGI (UO-31 renal) of the same compound?
A: > 100 µM

Q: What about the TGI (RPMI-8226 leukemia) of the same compound?
A: > 100 µM

Q: And the TGI (CCRF-CEM leukemia)?
A: > 100 µM

Q: What about the TGI (M14 melanoma) of the same compound?
A: > 100 µM

Q: And the TGI (SN12C renal)?
A: > 100 µM

Q: What about the TGI (UACC-257 melanoma) of the same compound?
A: > 100 µM

Q: What about the TGI (SK-MEL-2 melanoma) of the same compound?
A: > 100 µM

Q: What about the TGI (K-562 leukemia) of the same compound?
A: > 100 µM

Q: And the TGI (HL-60(TB) leukemia)?
A: > 100 µM

Q: And the TGI (COLO 205 colon)?
A: > 100 µM

Q: What about the TGI (SNB-19 CNS) of the same compound?
A: > 100 µM

Q: What about the TGI (EKVX NSCLC) of the same compound?
A: > 100 µM

Q: What about the TGI (IGROV1 ovarian) of the same compound?
A: > 100 µM

Q: And the TGI (SW-620 colon)?
A: > 100 µM

Q: And the TGI (MDA-MB-435)?
A: > 100 µM

Q: What about the TGI (MDA-N) of the same compound?
A: > 100 µM

Q: And the TGI (NCI-H226 lung)?
A: > 100 µM

Q: And the TGI (MOLT-4 leukemia)?
A: > 100 µM

Q: What about the TGI (A549 NSCLC) of the same compound?
A: > 100 µM

Q: And the TGI (NCI-H460 lung)?
A: > 100 µM

Q: And the TGI (T-47D breast)?
A: > 100 µM

Q: What about the TGI (SK-MEL-5 melanoma) of the same compound?
A: > 100 µM

Q: What about the TGI (TK-10 renal) of the same compound?
A: > 100 µM

Q: And the TGI (ACHN renal)?
A: > 100 µM

Q: And the TGI (NCI/ADR-RES ovarian)?
A: > 100 µM

Q: And the TGI (SK-OV-3 ovarian)?
A: > 100 µM

Q: And the TGI (UACC-62 melanoma)?
A: > 100 µM

Q: And the TGI (HS 578T breast)?
A: > 100 µM

Q: What about the TGI (DU-145 prostate) of the same compound?
A: > 100 µM

Q: And the TGI (MCF7 breast)?
A: > 100 µM

Q: And the TGI (OVCAR-8 ovarian)?
A: > 100 µM

Q: What about the TGI (HCT-15 colon) of the same compound?
A: > 100 µM

Q: And the TGI (MDA-MB-231 breast)?
A: > 100 µM

Source: PubChem BioAssay (NCI)
